Experimental data taken from patent publication US5373040A, “Amorphous solid modification of 2,2',2"-nitrilo[triethyl-tris-(3,3',5,5'-tetra-tert-butyl-1,1'-biphenyl- 2,2'-diyl)phosphite]” (Ciba-Geigy Corporation, priority 1993, dated 1994).

Key:
[1] = Solubility in LLDPE film by diffusion-in, X-ray fluorescence; assay type: physicochemical
Experimental: Experiments are carried out to determine the solubility of the instant compound into linear low density polyethylene (LLDPE) films at 20° C., 40° C. and 60° C. by diffusion-in of a relatively homogeneous particle size (<70 microns) of the test sample suspended in silicon oil.
Each sample is carefully ground with a mortar and pestle and the particle size below 70 microns is separated by sieving with a 200 mesh screen. The powder is then suspended in silicon oil (polydimethylsiloxane, L-45, Union Carbide Chemicals) at a concentration of approximately 38% (wt/wt). A few drops of this suspension is placed on a 10 mil (0.254 mm) thick, 2"×2" (5.08 cm×5.08 cm) compression molded film and a second film of the same dimension is placed on top. The films are gently pressed together so that the suspension forms a thin liquid layer between the polymer films. Excess suspension is removed and the procedure is repeated till a stack of eight films (six films for evaluation) are prepared. The stack is then placed between two 2.5"×2.5" (6.35 cm×6.35 cm) ceramic tiles and wrapped in aluminum foil and held together with a G-clamp. Each stack is aged at 20° C., 40° C. and 60° C. under a nitrogen atmosphere. At specified intervals, a single film is removed from the stack and the excess suspension is washed from the film with hexane. The film is then analyzed by X-ray fluorescence for total phosphorus content. LLDPE containing 0, 1000 ppm and 2000 ppm of the test compound are used as standard controls for this X-ray fluorescence method.

[2] = Solubility in lubricating oil (Mobil BB oil); assay type: physicochemical
Experimental: The following experiments are performed to determine the solubility of amorphous compound A and crystalline compound B in Mobil BB oil. Both compounds have the same uniform particle sizes (40-70 micron).
Compound A=amorphous form of 2,2',2"-nitrilo-[triethyl-tris-(3,3',5,5'-tetra-tert-butyl-1,1'-biphenyl-2,2'-diyl) phosphite], prepared in accordance with instant Example 1.
Compound B=crystalline form of 2,2',2"-nitrilo[triethyl-tris-(3,3',5,5'-tetra-tert-butyl-1,1'-biphenyl-2,2'-diyl) phosphite], prepared in accordance with Example 4 of U.S. Pat. No. 4,318,845.
Into a vial of 980 mg. of Mobil BB oil is added 20 mg. of compound A at ambient temperature. For the first 30 minutes, the vial is shaken every 10 minutes. After the initial 30 minutes, the vial is left standing.
Into a vial of 980 mg. of Mobil BB oil is added 20 mg. of compound B at ambient temperature. For the first 30 minutes, the vial is shaken every 10 minutes. After the initial 30 minutes, the vial is left standing.
Into a vial of 980 mg. of Mobil BB oil is added 20 mg. of compound A at ambient temperature. The vial is then placed into a 60° C. oil bath.
Into a vial of 980 mg. of Mobil BB oil is added 20 mg. of compound B at ambient temperature. The vial is then placed into a 60° C. oil bath.
Into a vial of 990 mg. of Mobil BB oil is added 10 mg. of compound A at ambient temperature. […] is shaken every 10 minutes. After the initial 30 minutes, the vial is left standing.
Into a vial of 990 mg. of Mobil BB oil is added 10 mg. of compound B at ambient temperature. […] is shaken every 10 minutes. After the initial 30 minutes, the vial is left standing.

[3] = Solubility in lubricating oil (Mobil BB oil); assay type: physicochemical; conditions: 1% by weight in Mobil BB oil (Exp. 4f), at 60° C. per footnote
[4] = Apparent bulk density (ASTM D-1895); assay type: physicochemical
Experimental: The apparent bulk density of the solids is measured according to the method of ASTM D-1895 (79). A higher apparent bulk density allows for a greater mass per unit volume which affords advantages in packaging of the solid product, such as lower costs for the packaging material, less storage space is required, etc.

[5] = Process stabilization of polypropylene: yellowness index of plaques (ASTM D1925); conditions: 0.075% by weight of each additive, 0.075% calcium stearate
From the text: (§1) The test additives are incorporated into the polypropylene by dry blending or, when the additive is a liquid, using a minimum amount of methylene chloride solvent. The solvent is then removed by evaporation under reduced pressure.

[6] = Process stabilization of polypropylene at 525° F.: melt flow rate (ASTM D1238); conditions: 0.075% by weight of each additive, 0.075% calcium stearate, 525° F.
Experimental: as §1
After each of the first, third and fifth extrusions, the melt flow rate (in grams/10 minutes) is determined by ASTM method D1238 on the pellets obtained from the extruder.

## CC(C)(C)c1cc(C(C)(C)C)c2op(OCCN(CCOp3oc4c(C(C)(C)C)cc(C(C)(C)C)cc4c4cc(C(C)(C)C)cc(C(C)(C)C)c4o3)CCOp3oc4c(C(C)(C)C)cc(C(C)(C)C)cc4c4cc(C(C)(C)C)cc(C(C)(C)C)c4o3)oc3c(C(C)(C)C)cc(C(C)(C)C)cc3c2c1 [Example 4 of U.S. 4,318,845, 2,2',2"-nitrilo[triethyl-tris-(3,3',5,5'-tetra-tert-butyl-1,1'-biphenyl-2,2'-diyl)phosphite], reference compound]
[1]; interval 15 (time unit not given)
  Solubility of Compound in LLDPE at 20° C.: 1500 ppm
[1]; interval 28 (time unit not given)
  Solubility of Compound in LLDPE at 20° C.: 1000 ppm
[1]; interval 35 (time unit not given)
  Solubility of Compound in LLDPE at 20° C.: 1200 ppm
[1]; interval 44 (time unit not given)
  Solubility of Compound in LLDPE at 20° C.: 1200 ppm
[1]; interval 10 (time unit not given)
  Solubility of Compound in LLDPE at 40° C.: 500 ppm
[1]; interval 17 (time unit not given)
  Solubility of Compound in LLDPE at 40° C.: 1750 ppm
[1]; interval 25 (time unit not given)
  Solubility of Compound in LLDPE at 40° C.: 750 ppm
[1]; interval 34 (time unit not given)
  Solubility of Compound in LLDPE at 40° C.: 400 ppm
[1]; interval 40 (time unit not given)
  Solubility of Compound in LLDPE at 40° C.: 600 ppm
[1]; interval 47 (time unit not given)
  Solubility of Compound in LLDPE at 40° C.: 1400 ppm
[1]; third section, interval 6 (time unit not given)
  Solubility of Compound in LLDPE at 20° C.: 1000 ppm
[1]; third section, interval 14 (time unit not given)
  Solubility of Compound in LLDPE at 20° C.: 800 ppm
[1]; third section, interval 22 (time unit not given)
  Solubility of Compound in LLDPE at 20° C.: 1000 ppm
[1]; third section, interval 28 (time unit not given)
  Solubility of Compound in LLDPE at 20° C.: 900 ppm
[1]; third section, interval 37 (time unit not given)
  Solubility of Compound in LLDPE at 20° C.: 900 ppm
[2]; 1% by weight in Mobil BB oil, RT, 1.5 hrs., listed as B
  Observation: Cloudy
[2]; 1% by weight in Mobil BB oil, RT, 1.5 hrs., listed as compound B
  Observation: cloudy suspension
[2]; 1% by weight in Mobil BB oil, RT, listed as compound B
  Time to clear solution: 16 h
[2]; 2% by weight in Mobil BB oil, 60° C. oil bath, 10 min., listed as B
  Observation: Cloudy
[2]; 2% by weight in Mobil BB oil, 60° C. oil bath, 10 min., listed as compound B
  Observation: cloudy suspension
[2]; 2% by weight in Mobil BB oil, 60° C. oil bath, listed as B
  Time to clear solution: 5 h
[2]; 2% by weight in Mobil BB oil, 60° C. oil bath, listed as compound B
  Time to clear solution: 16 h
[2]; 2% by weight in Mobil BB oil, RT, 2.5 hrs., listed as B
  Observation: Cloudy
[2]; 2% by weight in Mobil BB oil, RT, 2.5 hrs., listed as compound B
  Observation: cloudy suspension
[2]; 2% by weight in Mobil BB oil, RT, listed as B
  Time to clear solution: 16 h
[2]; 2% by weight in Mobil BB oil, RT, listed as compound B
  Time to clear solution: 16 h
[3]
  Time to clear solution: 5 h
[4]
  Bulk Density: 0.44 g/mL

## CC(C)(C)c1cc(CCC(=O)OCC(COC(=O)CCc2cc(C(C)(C)C)c(O)c(C(C)(C)C)c2)(COC(=O)CCc2cc(C(C)(C)C)c(O)c(C(C)(C)C)c2)COC(=O)CCc2cc(C(C)(C)C)c(O)c(C(C)(C)C)c2)cc(C(C)(C)C)c1O [Base, neopentanetetrayl tetrakis(3,5di-tert-butyl-4-hydroxyhydrocinnamate)]
[5]; after fifth extrusion
  Yellowness Index (YI) Values after Extrusion 5: 11.0
[5]; after first extrusion
  Yellowness Index (YI) Values after Extrusion 1: 7.6
[5]; after third extrusion
  Yellowness Index (YI) Values after Extrusion 3: 9.0
[6]; after fifth extrusion
  Melt Flow after Extrusion 5: 17.5 grams/10 minutes
[6]; after first extrusion
  Melt Flow after Extrusion 1: 8.1 grams/10 minutes
[6]; after third extrusion
  Melt Flow after Extrusion 3: 12.9 grams/10 minutes
